Active and inactive are the calls of the source.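 Rule for the calls: active = compounds lowering heat-shock reporter fluorescence with mean IC50 at or below 15 µM, flagged as SKN-1 screen artifacts; inactive = the rest.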
The compounds below were run on C. elegans VP596 hsp-16.2 GFP/RFP after heat shock (assay: hsp-16.2 heat-shock reporter inhibition in nematodes, SAR follow-up, counter-screen for SKN-1 inhibitor project, whole organism, C. elegans VP596, GFP/RFP ratio, round 2 (AID 652273)).

Q: `C#CCNCc1cc(Cl)c(OCc2ccc(Cl)cc2)c(OCC)c1` was tested. Which IC50 did it give?
A: > 64 µM (inactive)

Q: With `CCOc1cc(CNC2CCCC2)cc(Cl)c1OCc1ccc(Br)cc1` as the compound, how does the IC50 read?
A: > 64 µM (inactive)

Q: How did the IC50 turn out when `CCOc1cc(CN(C)C2CCCC2)cc(Cl)c1OCc1ccc(Cl)cc1` was run?
A: > 64 µM (inactive)

Q: For `CCOc1cc(CN2CCN(C)CC2)cc(Cl)c1OCc1ccc(F)cc1`, which IC50 is on record?
A: > 64 µM (inactive)

Q: For `CCOc1cc(CN2CCCCC2)cc(Cl)c1OCc1ccc(Cl)cc1`, which IC50 is on record?
A: > 64 µM (inactive)

Q: Which IC50 does the source give for `CCOc1cc(CN(C(C)=O)C2CCCC2)cc(Cl)c1OCc1ccc(Cl)cc1` here?
A: > 64 µM (inactive)

Q: With `CCOc1cc(CN2CCOCC2)cc(Cl)c1OCc1ccc(F)cc1` as the compound, how does the IC50 read?
A: > 64 µM (inactive)

Q: For `CCOc1cc(CNC2CCCC2)cc(Cl)c1OCc1ccc(Cl)cc1F`, which IC50 is on record?
A: > 64 µM (inactive)

Q: With `CCOc1cc(CN2CCOCC2)cc(Cl)c1OCc1ccc(Cl)cc1` as the compound, how does the IC50 read?
A: > 64 µM (inactive)

Q: With `CCOc1cc(CNC2CC2)cc(Cl)c1OCc1ccc(C#N)cc1` as the compound, how does the IC50 read?
A: > 64 µM (inactive)

Q: Which IC50 does the source give for `CCOc1cc(CNCC2CC2)cc(Cl)c1OCc1ccc(Cl)cc1` here?
A: > 64 µM (inactive)

Q: Which IC50 does the source give for `CCOc1cc(CN2CCN(C)CC2)cc(Cl)c1OCc1ccc(Cl)cc1` here?
A: > 64 µM (inactive)

Q: How did the IC50 turn out when `CCOc1cc(CNC2CC2)cc(Cl)c1OCc1ccc(Cl)cc1` was run?
A: > 64 µM (inactive)

Q: `C=CCNCc1cc(Cl)c(OCc2ccc(Cl)cc2)c(OCC)c1` was tested. Which IC50 did it give?
A: > 64 µM (inactive)

Q: With `CCOc1cc(CN2CCCC2)cc(Cl)c1OCc1ccc(F)cc1` as the compound, how does the IC50 read?
A: > 64 µM (inactive)

Q: `CCCNCc1cc(Cl)c(OCc2ccc(Cl)cc2)c(OCC)c1` was tested. Which IC50 did it give?
A: > 64 µM (inactive)

Q: For `CCOc1cc(CN2CCCC2)cc(Cl)c1OCc1ccc(Cl)cc1`, which IC50 is on record?
A: > 64 µM (inactive)

Q: `CCOc1cc(CNC)cc(Cl)c1OCc1ccc(Cl)cc1` was tested. Which IC50 did it give?
A: > 64 µM (inactive)

Q: For `Cc1cc(CNC2CCCC2)cc(C)c1OCc1ccc(Cl)cc1`, which IC50 is on record?
A: > 64 µM (inactive)

Q: `COc1cc(CNC2CCCC2)cc(F)c1OCc1ccc(Cl)cc1` was tested. Which IC50 did it give?
A: > 64 µM (inactive)

Q: Which IC50 does the source give for `CCOc1cc(CNC2CC2)cc(Cl)c1OCc1ccc(Cl)cc1F` here?
A: > 64 µM (inactive)

Q: For `COc1cc(CNC2CCCC2)cc(Br)c1OCc1ccc(Cl)cc1`, which IC50 is on record?
A: > 64 µM (inactive)

Q: With `CCOc1cc(CNC2CC2)cc(Cl)c1OCc1ccc(Br)cc1` as the compound, how does the IC50 read?
A: > 64 µM (inactive)

Q: For `CCOc1cc(CNC2CCCC2)cc(Cl)c1OCc1ccc(C#N)cc1`, which IC50 is on record?
A: > 64 µM (inactive)

Q: For `Clc1ccc(COc2c(Cl)cc(CNC3CCCC3)cc2Cl)cc1`, which IC50 is on record?
A: > 64 µM (inactive)

Q: `COc1cc(CNC2CCCC2)cc(Cl)c1OCc1ccc(Cl)cc1` was tested. Which IC50 did it give?
A: > 64 µM (inactive)

Q: With `CCOc1cc(CN2CCCCC2)cc(Cl)c1OCc1ccc(F)cc1` as the compound, how does the IC50 read?
A: > 64 µM (inactive)
